Measurements published in patent US20160312240A1, “MODIFIED PYR/PYL RECEPTORS ACTIVATED BY ORTHOGONAL LIGANDS” (The Regents of the University of California, priority 2010, published 2016).

How the values were obtained:
[1] = test system: PYR/PYL-PP2C protein-protein interactions; assay: Yeast competition screen: reduction of ABA-promoted PYR/PYL-PP2C interaction; assay type: cell-based; conditions: 100 nM ABA and 100 μM test chemical (1000-fold excess), yeast strains
Description: To isolate PYR1 orthogonal receptors, a two-step process was used. First, a large collection of compounds was screened to identify compounds that weakly interact with receptors, defined as such by their ability to displace receptor-bound ABA in competition experiments. Once weak binders were identified, those with the most desirable properties from an end-use perspective were used as targets for iterative mutagenesis and selection schemes. Pre-selection of weak-binding ligands improves the frequency of isolating new receptor proteins, because fewer alterations of the ligand binding site are required to achieve molecular recognition. However, pre-selection is not a prerequisite for success.
Pre-selection of ligands. 74 structurally diverse agrochemicals were obtained, selected from a larger set of approximately 1500 commercially available agrochemicals. These 74 compounds were tested for their ability to reduce ABA-promoted PYR/PYL-PP2C protein-protein interactions in suitable yeast strains when added at 1000-fold excess relative to ABA (i.e. 100 nM ABA and 100 μM test chemical).

[2] = test system: PYR1 variants 27C-1, 27C-2, 27C-3, 27C-5, 27C-16, 27C-18, 27C-19, 27C-20, 27C-21 (Table 8); assay: MAV99 growth selection, third round of shuffling; assay type: cell-based, Arabidopsis; conditions: 1.5 μM fenhexamid; media lacking uracil; Table 8 variants
Method: A third round of shuffling was conducted by combining DNA for the “27B′” mutants shown in Table 7 and ePCR1 library to create a library of ˜150,000 clones which was then transformed into MAV99 pAD-HAB 1. Constitutive mutants were then depleted by growth on FOA after which fenhexamid sensitive mutants were selected by growth on media lacking uracil but containing 1.5 μM fenhexamid, using the methods described above.

[3] = test system: PYR1 variants 27B-1, 27B-2, 27B-3, 27B-4, 27B-7, 27B-8 (Table 7); assay: MAV99 growth selection, second round of shuffling (27B' library); assay type: cell-based, Arabidopsis; conditions: 20 μM fenhexamid; media lacking uracil; Table 7 variants
Method: To improve fenhexamid receptor sensitivity, DNA shuffling was employed using the same general experimental scheme outlined previously. Briefly, equimolar amounts of plasmid DNA for the fenhexamid receptors shown in Table 1 were pooled and combined with an equimolar amount of the ePCR1 library DNA. The pooled templates were utilized for DNA shuffling, which was conducted as described in Example 1. A library (named “27”) of ˜400,000 shuffled variants was prepared. The DNA for this library was introduced into the MAV99 pAD-HAB 1 yeast strain as described above and the resulting yeast cells collected and grown on FOA-containing plates to reduce constitutive mutants in the library, yielding the 27B′ library. The 27B′ library was plated onto media lacking uracil but containing 20 μM fenhexamid. ˜50 positives were selected from these plates and subsequently retested on media lacking […] to distinguish constitutive mutants (i.e., false positives) from those mutants that grow specifically in response to fenhexamid (i.e., true positives). The PYR1 coding sequences for the true positives were sequenced to yield the following series of fenhexamid-responsive PYR1 variants (Table 7): […]

[4] = target: T1, PYR1 K59R,Y120H,M158I triple mutant (Arabidopsis thaliana, UniProt O49686, K59R/M158I/Y120H); assay: In vitro receptor (PP2C) assay, 2:1 receptor to phosphatase; assay type: biochemical
T1 construct: 6×-His (N); made in house
T1 sequence (O49686 whole entry K59R/Y120H/M158I): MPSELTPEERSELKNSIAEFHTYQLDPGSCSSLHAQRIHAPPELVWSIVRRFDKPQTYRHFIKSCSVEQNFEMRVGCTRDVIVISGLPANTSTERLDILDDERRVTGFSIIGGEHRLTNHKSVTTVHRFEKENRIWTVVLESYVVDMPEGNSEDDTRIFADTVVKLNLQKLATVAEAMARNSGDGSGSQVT
T1 sequence (Q9CAJ0 23-511, further chain): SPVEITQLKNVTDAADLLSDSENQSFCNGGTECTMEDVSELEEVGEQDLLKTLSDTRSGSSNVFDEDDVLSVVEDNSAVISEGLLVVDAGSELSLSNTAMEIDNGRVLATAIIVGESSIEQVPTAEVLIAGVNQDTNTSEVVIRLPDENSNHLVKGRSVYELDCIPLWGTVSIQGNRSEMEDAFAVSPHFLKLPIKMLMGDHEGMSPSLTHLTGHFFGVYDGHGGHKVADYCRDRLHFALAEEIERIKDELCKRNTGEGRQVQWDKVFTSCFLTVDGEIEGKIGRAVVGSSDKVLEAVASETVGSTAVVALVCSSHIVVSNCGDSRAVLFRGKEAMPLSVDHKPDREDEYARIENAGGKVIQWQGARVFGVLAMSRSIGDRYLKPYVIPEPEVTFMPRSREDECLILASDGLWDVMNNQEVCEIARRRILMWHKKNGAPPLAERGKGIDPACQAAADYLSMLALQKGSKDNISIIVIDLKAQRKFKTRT
Method: FIGS. 2A-2B. […] FIG. 2A. The mutants (listed on left side of panel) were constructed in pBD-PYR1 and transformed into Y190 pAD-HAB1 yeast cells. The transformants were then grown on increasing concentrations of fenhexamid and scored for responsiveness using X-gal staining, performed as described in Park et al., 2009. As shown, the mutations K59R, Y120H, and M1581 are necessary for fenhexamid response by 27C-2. FIG. 2B. In vitro characterization of the PYR1 K59R, Y120H, M158I mutant. Recombinant wild-type and mutant PYR1 proteins were produced as described previously and used in PP2C assays, as described previously (Park et al., 2009), with the exception that a 2:1 ratio of receptor to phosphatase was utilized.
To establish the relevance of the residues identified by our screens, we focused on a highly sensitive fenhexamid-responsive mutant identified, 27C-2, which contains 5 mutations (P42S, K59R, R74C, Y120H, and M158I; SEQ ID NO:171; see Table 8) in comparison to the wild-type PYR1 sequence. […] To probe the role of the 5 mutations in fenhexamid response, each of these residues were reverted back to the wild-type residue using site-directed mutagenesis.

[5] = test system: PYL2 K64R,Y124H,M164I,V67I,V114I transgenic plants; assay: Water loss from detached aerial rosettes; assay type: in vivo, Arabidopsis; conditions: 100 μM spray, approximately 16 hours pretreatment, FIG. 6A-C
Method: FIGS. 6A-6C. Fenhexamid reduces water loss in transgenic PYL2^K64R, Y124H, M164I, V67I, V114I expressing plants. Shown are three independent water loss experiments (FIGS. 6A-C) conducted on transgenic plants treated with control, 100 μM fenhexamid, or 100 μM ABA containing solutions. Plants were treated as described in the Examples section below and water loss from aerial rosettes was measured after detachment.
Transgenic or control (wild-type) plants were grown under a 16 hr light/8 hr dark cycle for 3 weeks and then treated with either 100 μM (+)-ABA, 100 μM fenhexamid, or control (containing 0.1% Tween-20, 0.1% DMSO). ABA treatments were conducted as a positive control. The plants were sprayed in the evening prior to conducting water loss experiments. The next morning, approximately 16 hours post-treatment, the above-ground rosettes of the experimental samples were collected and transferred to weighing dishes, 8 plants per measured sample, and maintained under ˜90-100 μEinstein/m^2 fluorescent light illumination. Four groups of eight plants were measured per time point at 20 min intervals. The experiments were repeated three times over the course of an eight-week interval. […]

Question: For CC1(C(=O)Nc2ccc(O)c(Cl)c2Cl)CCCCC1 [fenhexamid], which “ability to reduce ABA-promoted PYR/PYL-PP2C protein-protein interactions” value [1] is on record?
Answer: compete for ABA

Question: What about the “Growth in response to fenhexamid (selection)” value [2] of the same molecule?
Answer: fenhexamid responsive

Question: What about the “Growth in response to fenhexamid (selection)” value [3] of the same molecule?
Answer: fenhexamid-responsive

Question: What about the IC50 [4] of the same molecule?
Answer: ~400 nM

Question: What about the “Water loss from detached rosettes” value [5] of the same molecule?
Answer: sufficient to reduce water loss
